Measured values as given in patent US20230391779A1, “BICYCLIC COMPOUNDS, COMPOSITIONS AND USE THEREOF” (Betta Pharmaceuticals Co., Ltd., priority 2020, published 2023).

Tests used:
[1] = Pharmacokinetics in plasma following PO cassette dosing in mice; assay type: in vivo; conditions: mouse, Balb/C female mice, 5 mg/kg; for AUC: blood collection 30 min, 2 h, 4 h
Experimental: Adult Balb/C female mice (6-7 weeks, Vitalriver) were received to cassette dosing of the test compounds with 10-20% DMSO, 10% Solutol (Kolliphor HS 15, Beijing Fengli Jingqiu Pharmaceutical Co., Ltd.) and 80-70% H2O as excipients. The mice (n=3) were giving oral administration (intragastric administration) at a dose of 5 mg/kg. Time of blood collection: 30 min, 2 h, 4 h. About 0.1 mL of whole blood was collected from retro-orbital venous plexus, and placed into tubes that contained EDTA as an anticoagulant. The samples were centrifuged at 4° C. and 4000 rpm for 10 min. The plasma was transferred into centrifuge tubes, and stored at −20° C. before being analyzed. Concentrations of test compounds in the plasma samples were analyzed with liquid chromatography-tandem mass spectrometry (LC-MS/MS). Plasma concentration-time data of individual animals was analyzed using Microsoft Excel 2010. Non-compartmental model was introduced in concentration analysis. The pharmacokinetic parameters of the test compounds were calculated using WinNonlin (version 4.1; Pharsight) software.

TEAD-YAP/TAZ interaction = experiment: CTGF ELISA assay; assay type: cell-based, human; conditions: CTGF in culture supernatant of NCI-H2052 cells, 24 hours with compound
Method in brief: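 NCI-H2052 cells treated 24 h at 37 °C with compound (10000–0.61 nM, 0.5% DMSO); secreted CTGF in supernatant measured by sandwich ELISA (OD 450 nm) against a standard curve. EC50 fitted from CTGF concentration-response curves.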

Row | SMILES | Cmax [1] | AUC [1] | EC50 (TEAD-YAP/TAZ interaction)
1 | C=C(F)C(=O)N1CC(n2c(=O)n(-c3ccc(C(F)(F)F)nc3)c3nccnc32)C1 [Compound 241, 1-(1-(2-fluoroacryloyl)azetidin-3-yl)-3-(6-(trifluoromethyl)pyridin-3-yl)-1,3-dihydro-2H-imidazo[4,5-b]pyrazin-2-one] | 2.53 µg/mL | 8.26 µg·h/mL | –
2 | C=C(F)C(=O)NC1CN(c2nc(-c3ccc(C(F)(F)F)cc3)nc3ccccc23)C1 [compound 269, 2-fluoro-N-(1-(2-(4-(trifluoromethyl)phenyl)quinazolin-4-yl)azetidin-3-yl)acrylamide] | 1.25 µg/mL | 4.37 µg·h/mL | –
3 | C=C(F)C(=O)N1CC(n2nc(-c3cnc(C(F)(F)F)nc3)c3cccnc32)C1 [Compound 183, 2-fluoro-1-(3-(3-(2-(trifluorometh-yl)pyrimidin-5-yl)-1H-pyrazolo-[3,4-b]pyridin-1-yl)azetidin-1-yl)-prop-2-en-1-one] | 3.68 µg/mL | 12.8 µg·h/mL | –
4 | C=C(F)C(=O)N1CC(n2nc(C#Cc3ccccc3)c3cccnc32)C1 [compound 307] | 2.71 µg/mL | 8.48 µg·h/mL | –
5 | C=C(F)C(=O)N1CC(n2nc(-c3ccc(C(F)(F)F)cc3)c3ccc(C)nc32)C1 [Compound 186, 2-fluoro-1-(3-(6-methyl-3-(4-(trifluoromethyl)phenyl)-1H-pyrazolo[3,4-b]pyridin-1-yl)-azetidin-1-yl)prop-2-en-1-one] | – | – | 0.002 µM
6 | C=CC(=O)N1CCC(n2nc(-c3ccc(C(F)(F)F)cc3)c3cccc(C(=O)NC4CCC(F)(F)CC4)c32)C1 (stereo not drawn) [Compound 111, 1-(1-acryloylpyrrolidin-3-yl)-N-(4,4-difluorocyclohexyl)-3-(4-(trifluoromethyl)phenyl)-1H-indazole-7-carboxamide] | – | – | 0.084 µM
7 | C=C(F)C(=O)N1CC(n2nc(-c3ccc(C(F)(F)F)cc3)c3ccnc(OC)c32)C1 [Compound 222, 2-fluoro-1-(3-(7-methoxy-3-(4-(trifluoromethyl)phenyl)-1H-pyrazolo[3,4-c]pyridin-1-yl)-azetidin-1-yl)prop-2-en-1-one] | – | – | 0.0009 µM
8 | C=CC(=O)N1CC(n2nc(-c3ccc(C(F)(F)F)cc3F)c3ncccc32)C1 [Compound 129, 1-(3-(3-(2-fluoro-4-(trifluoro-methyl)phenyl)-1H-pyrazolo[4,3-b]pyridin-1-yl)azetidin-1-yl)prop-2-en-1-one] | – | – | 0.008 µM
9 | C=CC(=O)N1CCC(n2nc(-c3ccc(C(F)(F)F)nc3)c3cccc(C(=O)NC4CC4)c32)C1 (stereo not drawn) [Compound 100, 1-(1-acryloylpyrrolidin-3-yl)-N-cyclopropyl-3-(6-(trifluorometh-yl)pyridin-3-yl)-1H-indazole-7-carboxamide] | – | – | 0.05 µM
10 | C/C=C/C(=O)N1CCC(n2nc(-c3ccc(C(F)(F)F)cc3)c3ccccc32)C1 (stereo not drawn) [Compound 56, (E)-1-(3-(3-(4-(trifluoromethyl)-phenyl)-1H-indazol-1-yl)pyrrol-idin-1-yl)but-2-en-1-one] | – | – | 0.07 µM
11 | C=CC(=O)N1CCC(n2nc(-c3ccc(C(F)(F)F)cc3)c3nc[nH]c(=O)c32)C1 (stereo not drawn) [Compound 2, 1-(1-acryloylpyrrolidin-3-yl)-3-(4-(trifluoromethyl)phenyl)-1,6-dihydro-7H-pyrazolo[4,3-d]pyrimidin-7-one] | – | – | 0.025 µM
12 | C=CC(=O)N1CCC(n2nc(-c3ccc(C(F)(F)F)nc3)c3cccc(C(=O)NC(C)C)c32)C1 (stereo not drawn) [Compound 98, 1-(1-acryloylpyrrolidin-3-yl)-N-isopropyl-3-(6-(trifluoromethyl)-pyridin-3-yl)-1H-indazole-7-carboxamide] | – | – | 0.084 µM
13 | C=CC(=O)N1CCC(n2nc(-c3ccc(C(F)(F)F)nc3)c3cccc(C(=O)NC)c32)C1 (stereo not drawn) [Compound 102, 1-(1-acryloylpyrrolidin-3-yl)-N-methyl-3-(6-(trifluoromethyl)-pyridin-3-yl)-1H-indazole-7-carboxamide] | – | – | 0.183 µM
14 | C=CC(=O)N1CCC(n2nc(-c3ccc(C(F)(F)F)cc3)c3cccc(Cl)c32)C1 (stereo not drawn) [Compound 45, 1-(3-(7-chloro-3-(4-(trifluoro-methyl)phenyl)-1H-indazol-1-yl)-pyrrolidin-1-yl)prop-2-en-1-one] | – | – | 0.015 µM
